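Growth conditions: 96-well plates. Treatment: test compound, 48 hours, 5 concentrations. Analysis: linear interpolation between bracketing concentrations; unreached endpoints set to highest concentration. TGI denotes the concentration required for complete inhibition of growth.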
Assays:
Experiment in all cases: inhibition of tumour cell growth, NCI panel, 48 h
U251 CNS = test system: U251 CNS
SF-295 CNS = test system: SF-295 CNS
DU-145 prostate = test system: DU-145 prostate
MALME-3M melanoma = test system: MALME-3M melanoma
KM12 colon = test system: KM12 colon
SK-MEL-2 melanoma = test system: SK-MEL-2 melanoma
SNB-19 CNS = test system: SNB-19 CNS
NCI-H460 lung = test system: NCI-H460 lung
K-562 leukemia = test system: K-562 leukemia
UACC-257 melanoma = test system: UACC-257 melanoma
SK-OV-3 ovarian = test system: SK-OV-3 ovarian
HCT-15 colon = test system: HCT-15 colon
M14 melanoma = test system: M14 melanoma
MDA-MB-231 breast = test system: MDA-MB-231 breast
SR leukemia = test system: SR leukemia
CAKI-1 renal = test system: CAKI-1 renal
SNB-75 CNS = test system: SNB-75 CNS
OVCAR-5 ovarian = test system: OVCAR-5 ovarian
HCT-116 colon = test system: HCT-116 colon
TK-10 renal = test system: TK-10 renal
786-0 renal = test system: 786-0 renal
MOLT-4 leukemia = test system: MOLT-4 leukemia
SN12C renal = test system: SN12C renal
BT-549 breast = test system: BT-549 breast
MDA-MB-435 = test system: MDA-MB-435
A549 NSCLC = test system: A549 NSCLC
HT29 colon = test system: HT29 colon
LOX IMVI melanoma = test system: LOX IMVI melanoma
NCI-H226 lung = test system: NCI-H226 lung
NCI-H522 lung = test system: NCI-H522 lung
T-47D breast = test system: T-47D breast
UACC-62 melanoma = test system: UACC-62 melanoma
SK-MEL-5 melanoma = test system: SK-MEL-5 melanoma
PC-3 prostate = test system: PC-3 prostate
SK-MEL-28 melanoma = test system: SK-MEL-28 melanoma
OVCAR-8 ovarian = test system: OVCAR-8 ovarian
RPMI-8226 leukemia = test system: RPMI-8226 leukemia
EKVX NSCLC = test system: EKVX NSCLC
OVCAR-4 ovarian = test system: OVCAR-4 ovarian
HOP-62 NSCLC = test system: HOP-62 NSCLC
HL-60(TB) leukemia = test system: HL-60(TB) leukemia
SW-620 colon = test system: SW-620 colon
IGROV1 ovarian = test system: IGROV1 ovarian
A498 renal = test system: A498 renal
RXF 393 renal = test system: RXF 393 renal
SF-268 CNS = test system: SF-268 CNS
OVCAR-3 ovarian = test system: OVCAR-3 ovarian
ACHN renal = test system: ACHN renal
NCI/ADR-RES ovarian = test system: NCI/ADR-RES ovarian
COLO 205 colon = test system: COLO 205 colon
CCRF-CEM leukemia = test system: CCRF-CEM leukemia
MCF7 breast = test system: MCF7 breast
HCC-2998 colon = test system: HCC-2998 colon
UO-31 renal = test system: UO-31 renal
SF-539 CNS = test system: SF-539 CNS
MDA-N = test system: MDA-N
HS 578T breast = test system: HS 578T breast
NCI-H23 lung = test system: NCI-H23 lung
HOP-92 NSCLC = test system: HOP-92 NSCLC

In the case of `CCOC(=O)c1c(NS(=O)(=O)c2ccc(Br)cc2)sc2c1CCCC2`, the TGI (U251 CNS) is reported as 25.4 µM, the TGI (SF-295 CNS) is reported as 8.39 µM and the TGI (DU-145 prostate) is reported as > 58 µM. The TGI (MALME-3M melanoma) was 27.9 µM, the TGI (KM12 colon) was 18.2 µM and the TGI (SK-MEL-2 melanoma) was 13.5 µM. The TGI (SNB-19 CNS) was 20.6 µM, the TGI (NCI-H460 lung) was 13.9 µM and the TGI (K-562 leukemia) was > 100 µM. For the same molecule, the TGI (UACC-257 melanoma) was 47.5 µM, the TGI (SK-OV-3 ovarian) was 50 µM and the TGI (HCT-15 colon) was 19 µM. The TGI (M14 melanoma) was 9.92 µM, the TGI (MDA-MB-231 breast) was 16.1 µM and the TGI (SR leukemia) was 74.7 µM. It also gave a TGI (CAKI-1 renal) of 33.7 µM, a TGI (SNB-75 CNS) of 12.4 µM and a TGI (OVCAR-5 ovarian) of 18.3 µM. It also gave a TGI (HCT-116 colon) of 21.1 µM, a TGI (TK-10 renal) of 31.9 µM and a TGI (786-0 renal) of 29.4 µM. The TGI (MOLT-4 leukemia) was 12.3 µM, the TGI (SN12C renal) was 12.1 µM and the TGI (BT-549 breast) was 19.4 µM. It also gave a TGI (MDA-MB-435) of 49.1 µM, a TGI (A549 NSCLC) of 26.5 µM and a TGI (HT29 colon) of 10.1 µM. The TGI (LOX IMVI melanoma) was 27.3 µM, the TGI (NCI-H226 lung) was 9.91 µM and the TGI (NCI-H522 lung) was 16.2 µM. It also gave a TGI (T-47D breast) of 14.5 µM, a TGI (UACC-62 melanoma) of 17.7 µM and a TGI (SK-MEL-5 melanoma) of 18.2 µM. For the same molecule, the TGI (PC-3 prostate) was 11.5 µM, the TGI (SK-MEL-28 melanoma) was 32.6 µM and the TGI (OVCAR-8 ovarian) was 15.3 µM. The TGI (RPMI-8226 leukemia) was 30.5 µM, the TGI (EKVX NSCLC) was 11 µM and the TGI (OVCAR-4 ovarian) was > 100 µM. For the same molecule, the TGI (HOP-62 NSCLC) was 14.1 µM, the TGI (HL-60(TB) leukemia) was > 100 µM and the TGI (SW-620 colon) was 30.6 µM. It also gave a TGI (IGROV1 ovarian) of 8.79 µM, a TGI (A498 renal) of 42.2 µM and a TGI (RXF 393 renal) of 6.98 µM. For the same molecule, the TGI (SF-268 CNS) was 10.9 µM, the TGI (OVCAR-3 ovarian) was 9.9 µM and the TGI (ACHN renal) was 14.6 µM. For the same molecule, the TGI (NCI/ADR-RES ovarian) was 3.72 µM, the TGI (COLO 205 colon) was 32.1 µM and the TGI (CCRF-CEM leukemia) was > 100 µM. The TGI (MCF7 breast) was > 62.9 µM, the TGI (HCC-2998 colon) was 32.6 µM and the TGI (UO-31 renal) was 15.7 µM. The TGI (SF-539 CNS) was 19.8 µM, the TGI (MDA-N) was 52.9 µM and the TGI (HS 578T breast) was 35.5 µM. It also gave a TGI (NCI-H23 lung) of 18.7 µM.

For `CC(=O)O[C@@]12[C@@H]3O[C@@]4(O)C[C@]5(C)[C@H]6C[C@@](C(C)C)(O[C@H]5c5ccoc5)O[C@H]1[C@]6(C4)O[C@]2(O)C(C)=CC3(C)C`, the TGI (U251 CNS) was > 100 µM, the TGI (SF-295 CNS) was > 100 µM and the TGI (DU-145 prostate) was > 100 µM. The TGI (MALME-3M melanoma) was > 100 µM, the TGI (KM12 colon) was > 100 µM and the TGI (SK-MEL-2 melanoma) was > 100 µM. For the same molecule, the TGI (SNB-19 CNS) was > 100 µM, the TGI (K-562 leukemia) was > 100 µM and the TGI (UACC-257 melanoma) was > 100 µM. The TGI (SK-OV-3 ovarian) was > 100 µM, the TGI (HCT-15 colon) was > 100 µM and the TGI (M14 melanoma) was > 100 µM. The TGI (MDA-MB-231 breast) was > 100 µM, the TGI (SR leukemia) was > 100 µM and the TGI (CAKI-1 renal) was > 100 µM. The TGI (SNB-75 CNS) was > 100 µM, the TGI (OVCAR-5 ovarian) was > 100 µM and the TGI (HCT-116 colon) was > 100 µM. The TGI (HOP-92 NSCLC) was > 100 µM, the TGI (TK-10 renal) was > 100 µM and the TGI (786-0 renal) was > 100 µM. The TGI (MOLT-4 leukemia) was > 100 µM, the TGI (SN12C renal) was > 100 µM and the TGI (BT-549 breast) was > 100 µM. The TGI (MDA-MB-435) was > 100 µM, the TGI (A549 NSCLC) was > 100 µM and the TGI (HT29 colon) was > 100 µM. The TGI (LOX IMVI melanoma) was > 100 µM, the TGI (NCI-H226 lung) was > 100 µM and the TGI (NCI-H522 lung) was > 100 µM. The TGI (T-47D breast) was > 100 µM, the TGI (UACC-62 melanoma) was > 100 µM and the TGI (SK-MEL-5 melanoma) was > 100 µM. For the same molecule, the TGI (PC-3 prostate) was > 100 µM, the TGI (SK-MEL-28 melanoma) was > 100 µM and the TGI (OVCAR-8 ovarian) was > 100 µM. The TGI (RPMI-8226 leukemia) was > 100 µM, the TGI (EKVX NSCLC) was > 100 µM and the TGI (OVCAR-4 ovarian) was > 100 µM. For the same molecule, the TGI (HOP-62 NSCLC) was > 100 µM, the TGI (HL-60(TB) leukemia) was > 100 µM and the TGI (SW-620 colon) was > 100 µM. For the same molecule, the TGI (IGROV1 ovarian) was > 100 µM, the TGI (RXF 393 renal) was > 100 µM and the TGI (SF-268 CNS) was > 100 µM. The TGI (OVCAR-3 ovarian) was > 100 µM, the TGI (ACHN renal) was > 100 µM and the TGI (NCI/ADR-RES ovarian) was > 100 µM. The TGI (COLO 205 colon) was > 100 µM, the TGI (CCRF-CEM leukemia) was > 100 µM and the TGI (MCF7 breast) was > 100 µM. For the same molecule, the TGI (HCC-2998 colon) was > 100 µM, the TGI (UO-31 renal) was > 100 µM and the TGI (SF-539 CNS) was > 100 µM. For the same molecule, the TGI (MDA-N) was > 100 µM, the TGI (HS 578T breast) was > 100 µM and the TGI (NCI-H23 lung) was > 100 µM.

For `CC1=C(C(=O)OCCc2ccc([N+](=O)[O-])cc2)C(c2ccccc2C(F)(F)F)C(C(=O)OC(C)C)=C(C)N1` (stereo unspecified), the TGI (U251 CNS) was > 100 µM, the TGI (SF-295 CNS) was > 100 µM and the TGI (DU-145 prostate) was > 100 µM. The TGI (MALME-3M melanoma) was 28.5 µM, the TGI (KM12 colon) was 31 µM and the TGI (SK-MEL-2 melanoma) was 7.16 µM. The TGI (SNB-19 CNS) was > 100 µM, the TGI (NCI-H460 lung) was > 100 µM and the TGI (K-562 leukemia) was > 100 µM. For the same molecule, the TGI (UACC-257 melanoma) was > 100 µM, the TGI (SK-OV-3 ovarian) was 30.6 µM and the TGI (HCT-15 colon) was > 100 µM. For the same molecule, the TGI (M14 melanoma) was 16.2 µM, the TGI (MDA-MB-231 breast) was > 100 µM and the TGI (SR leukemia) was > 100 µM. The TGI (CAKI-1 renal) was > 100 µM, the TGI (SNB-75 CNS) was > 100 µM and the TGI (OVCAR-5 ovarian) was > 100 µM. The TGI (HCT-116 colon) was > 100 µM, the TGI (TK-10 renal) was > 100 µM and the TGI (786-0 renal) was > 100 µM. The TGI (MOLT-4 leukemia) was 7.95 µM, the TGI (SN12C renal) was 26.7 µM and the TGI (BT-549 breast) was > 100 µM. For the same molecule, the TGI (MDA-MB-435) was > 100 µM, the TGI (A549 NSCLC) was > 100 µM and the TGI (HT29 colon) was > 100 µM. The TGI (LOX IMVI melanoma) was > 100 µM, the TGI (NCI-H226 lung) was 21.5 µM and the TGI (NCI-H522 lung) was 7.5 µM. For the same molecule, the TGI (T-47D breast) was > 100 µM, the TGI (UACC-62 melanoma) was 36.5 µM and the TGI (SK-MEL-5 melanoma) was 3.09 µM. The TGI (PC-3 prostate) was > 100 µM, the TGI (SK-MEL-28 melanoma) was > 100 µM and the TGI (OVCAR-8 ovarian) was > 100 µM. For the same molecule, the TGI (RPMI-8226 leukemia) was > 100 µM, the TGI (EKVX NSCLC) was 6.51 µM and the TGI (OVCAR-4 ovarian) was > 100 µM. For the same molecule, the TGI (HOP-62 NSCLC) was > 100 µM, the TGI (SW-620 colon) was > 100 µM and the TGI (IGROV1 ovarian) was > 100 µM. The TGI (RXF 393 renal) was 7.34 µM, the TGI (SF-268 CNS) was > 100 µM and the TGI (OVCAR-3 ovarian) was > 100 µM. For the same molecule, the TGI (ACHN renal) was > 100 µM, the TGI (NCI/ADR-RES ovarian) was > 100 µM and the TGI (COLO 205 colon) was 16.3 µM. For the same molecule, the TGI (CCRF-CEM leukemia) was > 100 µM, the TGI (MCF7 breast) was > 100 µM and the TGI (HCC-2998 colon) was > 100 µM. For the same molecule, the TGI (UO-31 renal) was > 100 µM, the TGI (SF-539 CNS) was > 100 µM and the TGI (MDA-N) was > 100 µM. The TGI (HS 578T breast) was 61.6 µM and the TGI (NCI-H23 lung) was > 100 µM.
